Results published in patent US9850282B2, “Stable pentadecapeptide salts, a process for preparation thereof, a use thereof in the manufacture of pharmaceutical preparations and a use thereof in therapy” (priority 2013, dated 2017).
Where two headings read alike, the source gives them in different places. No end group written: not given here.

Experiments:
[1] = simulated gastric fluid, 37° C.
in vitro = settings: artificial gastric juice with pepsin, 37° C.
[2] = 37° C.; for Pentadecapeptide content decrement (rel. %) in gastric juice at pH = 2.0, 1.5 hours: 90 min; for Pentadecapeptide content decrement (rel. %) in gastric juice at pH = 2.0, 2.5 hours: 150 min; for Pentadecapeptide content decrement (rel. %) in gastric juice at pH = 4.0, 6 hours: 360 min; for Pentadecapeptide content decrement (rel. %) in gastric juice at pH = 4.0, 7 hours: 420 min; for Pentadecapeptide content decrement (rel. %) in gastric juice at pH = 4.0, 8 hours: 480 min
[3] = Collateral vessel presentation after femoral artery removal; type: in vivo, rats; settings: 5-10 min after removal of femoral artery part; local 1 min bath (bepecin 10 μg/kg, L-arginine 100 mg/kg, L-NAME 5 mg/kg)
Text: Bepecin has a particular beneficial effect after large blood vessel removal. Unlike L-NAME and L-arginine, bepecin rapidly bridges defect between the stumps of the vessel, thus even in the case of the worst scenario, rapidly reorganizing blood supply. Part of femoral artery in rats (between a. epigastrica caudalis and a. femoralis circumflexa lateralis) was removed in order to investigate collateral vessel presentation within vascular defect following formation of critical size vascular defect. Collateral vessel presentation within vascular defect was assessed according to the method described for microangiographic assessment in Cardiovasc Res. 1997 September; 35(3): 547-52. Thermographic imaging was performed using an infrared camera.

[4] = Stability in water at 100° C., 1 hour; type: physicochemical
Description: (§1) This addition will be in the range from 0.5 mg to 3.0 mg per 1 mg of bepecin. […] The stability of bepecin salt with L-arginine in water solutions was determined after incubation of aqueous salt solutions in concentration 1 g/100 ml, at 50° C., and in a separate test in very stringent conditions: at 100° C., where the decomposition was determined after one hour.

Acute toxicity = type: in vivo, Wistar Albino rats; settings: 1 g/kg body weight, intraperitoneally, intravenously or intragastrically
[5] = Stability in water solutions (1 g/100 ml) at 50° C.; type: physicochemical; settings: for Pentadecapeptide content decrement in water at 50° C./time (hours): 20: 20 hours; for Pentadecapeptide content decrement in water at 50° C./time (hours): 65: 65 hours; for Pentadecapeptide content decrement in water at 50° C./time (hours): 148: 148 hours; for Pentadecapeptide content decrement in water at 50° C./time (hours): 388: 388 hours; for Pentadecapeptide content decrement in water at 50° C./time (hours): start/0: start/0 hours
Description: as §1

[6] = 1 g/100 ml of water, 20° C., 253.7 nm, 70 min
[7] = Accelerated ageing at 50° C. and relative humidity of 65%; type: physicochemical
[8] = intravenously, orally or intraperitoneally, 10 ng to 100 mg/kg; cited from earlier work
HSV-1 and HSV-2 = assay: Newborn mice, intracerebral inoculation with HSV-1 and HSV-2; type: in vivo; settings: lethally infected newborn mice; agents applied 48 or 72 hours after viral infection; bepecin 10 and 100 μg/kg, acyclovir 10 and 100 mg/kg
[9] = Bleeding and thrombocytopenia after amputation; type: in vivo, rats; settings: bepecin by itself
Description: Bepecin was administered intraperitoneally, intravenously or intragastrically (10 μg/kg, 10 ng/kg body weight).

[10] = Anaphylactoid reaction induced by dextran and/or egg white; type: in vivo, rats, mouse; settings: dextran and/or egg white i.v.; bepecin 10 μg, 1 μg, 10 ng, 10 pg/kg; clomipramine 20 mg/kg, cimetidine 10 mg/kg alone
[11] = pH 2, Pentadecapeptide content decrement (rel. %) in gastric juice at pH = 2.0, 1.0 hours, pH 2.0, 1.0 h
[12] = pH 2, Pentadecapeptide content decrement (rel. %) in gastric juice at pH = 2.0, 2.0 hours, pH 2.0, 2.0 h
[13] = pH 4, Pentadecapeptide content decrement (rel. %) in gastric juice at pH = 4.0, 3 hours, pH 4.0, 3 h
[14] = pH 2, Pentadecapeptide content decrement (rel. %) in gastric juice at pH = 2.0, 0.5 hours, pH 2.0
[15] = pH 3, Pentadecapeptide content decrement (rel. %) in gastric juice at pH = 3.0, 0.5 hours, pH 3.0
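Throughout, for Pentadecapeptide content decrement (rel. %) in gastric juice at pH = 2.0, 0 hours: peptide salt at 10 mg/5 ml incubated in artificial gastric juice (HCl, NaCl, pepsin 1.0 g/l) at the listed pH and 37° C, peptide content tracked over time.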
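Throughout, for Pentadecapeptide content decrement (rel. %) in gastric juice at pH = 2.0, 1.5 hours: peptide salt at 10 mg/5 ml incubated in artificial gastric juice (HCl, NaCl, pepsin 1.0 g/l) at the listed pH and 37° C, peptide content tracked over time.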
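Throughout, for Pentadecapeptide content decrement (rel. %) in gastric juice at pH = 2.0, 2.5 hours: peptide salt at 10 mg/5 ml incubated in artificial gastric juice (HCl, NaCl, pepsin 1.0 g/l) at the listed pH and 37° C, peptide content tracked over time.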
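Throughout, for Pentadecapeptide content decrement (rel. %) in gastric juice at pH = 3.0, 0 hours: peptide salt at 10 mg/5 ml incubated in artificial gastric juice (HCl, NaCl, pepsin 1.0 g/l) at the listed pH and 37° C, peptide content tracked over time.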

With GEPPPGKPADDAGLV [BPC acetate] the remaining at 1 h [1, 11] was 8.2%, the remaining at 2 h [1, 12] was 2.46% and the remaining at 3 h ([1]; pH 3, Pentadecapeptide content decrement (rel. %) in gastric juice at pH = 3.0, 3.0 hours, pH 3.0, 3.0 h) was 2.5%. It also gave a remaining at 3 h [1, 13] of 72.5%, a remaining at 0.5 h, 10 mg/5 ml (in vitro; [14]) of 21.4% and a remaining at 0.5 h, 10 mg/5 ml (in vitro; [15]) of 41.7%. For the same molecule, the “Pentadecapeptide content decrement (rel. %) in gastric juice at pH = 2.0, 0 hours” value [2] was 100 rel. %, the “Pentadecapeptide content decrement (rel. %) in gastric juice at pH = 2.0, 1.5 hours” value [2] was 4.75 rel. % and the “Pentadecapeptide content decrement (rel. %) in gastric juice at pH = 2.0, 2.5 hours” value [2] was 2.1 rel. %. The “Pentadecapeptide content decrement (rel. %) in gastric juice at pH = 3.0, 0 hours” value [2] was 100 rel. %, the “Pentadecapeptide content decrement (rel. %) in gastric juice at pH = 4.0, 0 hours” value ([2]; pH 4.0) was 100 rel. % and the “Pentadecapeptide content decrement (rel. %) in gastric juice at pH = 4.0, 6 hours” value ([2]; pH 4.0) was 48.8 rel. %. The “Pentadecapeptide content decrement (rel. %) in gastric juice at pH = 4.0, 7 hours” value ([2]; pH 4.0) was 44.6 rel. % and the “Pentadecapeptide content decrement (rel. %) in gastric juice at pH = 4.0, 8 hours” value ([2]; pH 4.0) was 38.0 rel. %.

For `N=C(N)NCCC[C@H](N)C(=O)O` [L-arginine], the “Collateral vessel presentation within vascular defect” value [3] was “Tiny collateral vessels were present, yet without interconnections”.

For GEPPPGKPADDAGLV [BPC Na salt], the “Pentadecapeptide content decrement (rel. %) in gastric juice at pH = 2.0, 0 hours” value [2] was 100 rel. %, the “Pentadecapeptide content decrement (rel. %) in gastric juice at pH = 2.0, 1.5 hours” value [2] was 4.4 rel. % and the “Pentadecapeptide content decrement (rel. %) in gastric juice at pH = 2.0, 2.5 hours” value [2] was 2.7 rel. %. The “Pentadecapeptide content decrement (rel. %) in gastric juice at pH = 3.0, 0 hours” value [2] was 100 rel. %, the “Pentadecapeptide content decrement (rel. %) in gastric juice at pH = 3.0, 3.0 hours” value ([2]; 180 min) was 40.2 rel. % and the “Pentadecapeptide content decrement (rel. %) in gastric juice at pH = 4.0, 0 hours” value ([2]; pH 4.0) was 100 rel. %. For the same molecule, the “Pentadecapeptide content decrement (rel. %) in gastric juice at pH = 4.0, 3 hours” value ([2]; pH 4.0, 3 h, 180 min) was 94.6 rel. %, the “Pentadecapeptide content decrement (rel. %) in gastric juice at pH = 4.0, 6 hours” value ([2]; pH 4.0) was 76.3 rel. % and the “Pentadecapeptide content decrement (rel. %) in gastric juice at pH = 4.0, 7 hours” value ([2]; pH 4.0) was 68.2 rel. %. The “Pentadecapeptide content decrement (rel. %) in gastric juice at pH = 4.0, 8 hours” value ([2]; pH 4.0) was 60.9 rel. %.

In the case of “GEPPPGKPADDAGLV [Arg-BPC, bepecin L-arginine salt (1:2)]”, the “Pentadecapeptide content decrement in water at 100° C. - 1 hour: after 1 hour” value ([4]; after 1 hour) is reported as 99.08% (unchanged!), the “Pentadecapeptide content decrement in water at 100° C. - 1 hour: start” value ([4]; start) is reported as 99.05% and the Acute toxicity (Acute toxicity) is reported as “no toxicity and no adverse effects”. The “Pentadecapeptide content decrement in water at 50° C./time (hours): 20” value [5] was 98.97%, the “Pentadecapeptide content decrement in water at 50° C./time (hours): 65” value [5] was 99.04% and the “Pentadecapeptide content decrement in water at 50° C./time (hours): 148” value [5] was 99.10%. The “Pentadecapeptide content decrement in water at 50° C./time (hours): 388” value [5] was 99.01%, the pH ([5]; aqueous salt solution 1 g/100 ml) was 7.35 and the “Pentadecapeptide content decrement in water at 50° C./time (hours): start/0” value [5] was 99.05%. The “Stability of aqueous solution under ultraviolet light” value [6] was “stable”, the remaining at 0.5 h [1, 14] was 30.2% and the remaining at 0.5 h [1, 15] was 98.1%. It also gave a remaining at 1 h ([1]; pH 4, Pentadecapeptide content decrement (rel. %) in gastric juice at pH = 4.0, 1 hours, pH 4.0, 1 h) of 99.9%, a remaining at 2 h ([1]; pH 4, Pentadecapeptide content decrement (rel. %) in gastric juice at pH = 4.0, 2 hours, pH 4.0, 2 h) of 99.5% and a remaining at 1 h (in vitro; [11]) of 13.5%. It also gave a remaining at 1.5 h, 10 mg/5 ml (in vitro; pH 2, Pentadecapeptide content decrement (rel. %) in gastric juice at pH = 2.0, 1.5 hours, pH 2.0, 1.5 h) of 8.2%, a remaining at 2 h (in vitro; [12]) of 6% and a remaining at 4 h, 10 mg/5 ml (in vitro; pH 3, Pentadecapeptide content decrement (rel. %) in gastric juice at pH = 3.0, 4.0 hours, pH 3.0, 4.0 h) of 87.2%. The remaining at 5 h, 10 mg/5 ml (in vitro; pH 3, Pentadecapeptide content decrement (rel. %) in gastric juice at pH = 3.0, 5.0 hours, pH 3.0, 5.0 h) was 84.9%, the remaining at 3 h, 10 mg/5 ml (in vitro; [13]) was 98.7% and the remaining at 4 h, 10 mg/5 ml (in vitro; pH 4, Pentadecapeptide content decrement (rel. %) in gastric juice at pH = 4.0, 4 hours, pH 4.0, 4 h) was 96.1%. The remaining at 5 h, 10 mg/5 ml (in vitro; pH 4, Pentadecapeptide content decrement (rel. %) in gastric juice at pH = 4.0, 5 hours, pH 4.0, 5 h) was 89.8%, the “Pentadecapeptide content decrement (rel. %) in gastric juice at pH = 2.0, 0 hours” value [2] was 100 rel. % and the “Pentadecapeptide content decrement (rel. %) in gastric juice at pH = 2.0, 2.5 hours” value [2] was 4.9 rel. %. For the same molecule, the “Pentadecapeptide content decrement (rel. %) in gastric juice at pH = 3.0, 0 hours” value [2] was 100 rel. %, the “Pentadecapeptide content decrement (rel. %) in gastric juice at pH = 3.0, 3.0 hours” value ([2]; 180 min) was 90.0 rel. % and the “Pentadecapeptide content decrement (rel. %) in gastric juice at pH = 4.0, 0 hours” value ([2]; pH 4.0) was 100 rel. %. The “Pentadecapeptide content decrement (rel. %) in gastric juice at pH = 4.0, 6 hours” value ([2]; pH 4.0) was 84.6 rel. %, the “Pentadecapeptide content decrement (rel. %) in gastric juice at pH = 4.0, 7 hours” value ([2]; pH 4.0) was 73.5 rel. % and the “Pentadecapeptide content decrement (rel. %) in gastric juice at pH = 4.0, 8 hours” value ([2]; pH 4.0) was 67.2 rel. %. For the same molecule, the “Pentadecapeptide content decrement in standing at 50° C. and relat. humidity 65%: 60 days” value [7] was 98.96% and the “Pentadecapeptide content decrement in standing at 50° C. and relat. humidity 65%: 90 days” value [7] was 99.07%.

For “Gly Glu Pro Pro Pro Gly Lys Pro Ala Asp Asp Ala Gly Leu Val (GEPPPGKPADDAGLV; also: salts with basic amino acids) [Peptide bepecin]”, the “Toxic changes (LD50, acute, subchronic and chronic toxicity)” value [8] is given as “did not induce any toxic changes”.

In the case of `Nc1nc2c(ncn2COCCO)c(=O)[nH]1` [acyclovir], the “Survival time (max.)” value (HSV-1 and HSV-2) is reported as 115 h and the “Survival time (min.)” value (HSV-1 and HSV-2) is reported as 105 h.

For `COC(=O)[C@@H](N)CCCNC(=N)N[N+](=O)[O-]` [L-NAME], the “Collateral vessel presentation within vascular defect” value [3] was “no collateral vessels are present”.

For Bepecin L-Lysine Salt (1:3) [Lys-BPC], the “Pentadecapeptide content decrement in water at 50° C./time (hours): 20” value [5] was 99.40%, the “Pentadecapeptide content decrement in water at 50° C./time (hours): 65” value [5] was 99.09% and the “Pentadecapeptide content decrement in water at 50° C./time (hours): 148” value [5] was 99.35%. The “Pentadecapeptide content decrement in water at 50° C./time (hours): 388” value [5] was 99.01%, the “Pentadecapeptide content decrement in water at 50° C./time (hours): start/0” value [5] was 99.07% and the “Pentadecapeptide content decrement in standing at 50° C. and relat. humidity 65%: 0 day” value ([7]; 0 day) was 99.47%. For the same molecule, the “Pentadecapeptide content decrement in standing at 50° C. and relat. humidity 65%: 10 days” value ([7]; 10 days) was 99.24%, the “Pentadecapeptide content decrement in standing at 50° C. and relat. humidity 65%: 30 days” value ([7]; 30 days) was 99.27% and the “Pentadecapeptide content decrement in standing at 50° C. and relat. humidity 65%: 60 days” value [7] was 98.90%. The “Pentadecapeptide content decrement in standing at 50° C. and relat. humidity 65%: 90 days” value [7] was 99.28%.

For H-GEPPPGKPADDAGLV-OH [Bepecin], the Coagulation parameters [9] was “does not affect the coagulation parameters by itself”.

In the case of `CN/C(=N/CCSCc1nc[nH]c1C)NC#N` [cimetidine], the “Effect on anaphylactoid reactions” value [10] is reported as “only poorly effective or even ineffective”.

In the case of `CN(C)CCCN1c2ccccc2CCc2ccc(Cl)cc21` [clomipramine], the “Effect on anaphylactoid reactions” value [10] is reported as “only poorly effective or even ineffective”.
